Test results as given in ChEMBL document CHEMBL3393036, “Tetra-substituted pyridinylimidazoles as dual inhibitors of p38α mitogen-activated protein kinase and c-Jun N-terminal kinase 3 for potential treatment of neurodegenerative diseases” (J Med Chem, 2015).

Biological target: Cyclin-dependent kinase 4/cyclin D1 (Homo sapiens) (UniProt P11802+P24385)
Test: Inhibition of CDK4D1 (unknown origin) at 5.5 uM by Caliper Mobility Shift Assay
Format: protein-complex assay

Structure (SMILES) | inhibition
COC(Cn1c(SC2CCC(C(=O)O)CC2O)nc(-c2ccc(F)cc2)c1-c1ccnc(NC(C)=O)c1)OC (stereo unspecified) | < 50%

Biological target: T1, Serine/threonine-protein kinase 4 (Homo sapiens) (UniProt Q13043)
T1 sequence (whole entry): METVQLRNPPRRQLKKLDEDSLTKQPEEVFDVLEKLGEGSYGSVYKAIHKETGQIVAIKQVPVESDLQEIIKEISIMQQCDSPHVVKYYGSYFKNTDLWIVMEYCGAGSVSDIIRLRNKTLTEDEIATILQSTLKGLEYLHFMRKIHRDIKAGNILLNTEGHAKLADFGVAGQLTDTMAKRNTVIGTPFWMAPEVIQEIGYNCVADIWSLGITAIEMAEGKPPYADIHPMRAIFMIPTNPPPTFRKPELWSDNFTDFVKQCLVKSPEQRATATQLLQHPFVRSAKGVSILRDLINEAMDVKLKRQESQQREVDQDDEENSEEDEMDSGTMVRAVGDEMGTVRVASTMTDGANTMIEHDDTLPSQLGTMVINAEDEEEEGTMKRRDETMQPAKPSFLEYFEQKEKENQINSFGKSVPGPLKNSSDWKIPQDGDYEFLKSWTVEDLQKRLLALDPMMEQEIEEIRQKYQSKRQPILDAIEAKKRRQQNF
Test: Inhibition of STK4 (unknown origin) at 5.5 uM by Caliper Mobility Shift Assay

Structure (SMILES) | inhibition
COC(Cn1c(SC2CCC(C(=O)O)CC2O)nc(-c2ccc(F)cc2)c1-c1ccnc(NC(C)=O)c1)OC (stereo unspecified) | < 50%

Biological target: ALK tyrosine kinase receptor (Homo sapiens) (UniProt Q9UM73)
Test: Inhibition of ALK (unknown origin) at 5.5 uM by Caliper Mobility Shift Assay

Structure (SMILES) | inhibition
COC(Cn1c(SC2CCC(C(=O)O)CC2O)nc(-c2ccc(F)cc2)c1-c1ccnc(NC(C)=O)c1)OC (stereo unspecified) | < 50%

Organism: Homo sapiens
Test: Inhibition of PRKACA(PKA) (unknown origin) at 5.5 uM by Caliper Mobility Shift Assay

Structure (SMILES) | inhibition
COC(Cn1c(SC2CCC(C(=O)O)CC2O)nc(-c2ccc(F)cc2)c1-c1ccnc(NC(C)=O)c1)OC (stereo unspecified) | < 50%

Biological target: Fibroblast growth factor receptor 3 (Homo sapiens) (UniProt P22607)
Sequence (P22607 23-806 limits assumed): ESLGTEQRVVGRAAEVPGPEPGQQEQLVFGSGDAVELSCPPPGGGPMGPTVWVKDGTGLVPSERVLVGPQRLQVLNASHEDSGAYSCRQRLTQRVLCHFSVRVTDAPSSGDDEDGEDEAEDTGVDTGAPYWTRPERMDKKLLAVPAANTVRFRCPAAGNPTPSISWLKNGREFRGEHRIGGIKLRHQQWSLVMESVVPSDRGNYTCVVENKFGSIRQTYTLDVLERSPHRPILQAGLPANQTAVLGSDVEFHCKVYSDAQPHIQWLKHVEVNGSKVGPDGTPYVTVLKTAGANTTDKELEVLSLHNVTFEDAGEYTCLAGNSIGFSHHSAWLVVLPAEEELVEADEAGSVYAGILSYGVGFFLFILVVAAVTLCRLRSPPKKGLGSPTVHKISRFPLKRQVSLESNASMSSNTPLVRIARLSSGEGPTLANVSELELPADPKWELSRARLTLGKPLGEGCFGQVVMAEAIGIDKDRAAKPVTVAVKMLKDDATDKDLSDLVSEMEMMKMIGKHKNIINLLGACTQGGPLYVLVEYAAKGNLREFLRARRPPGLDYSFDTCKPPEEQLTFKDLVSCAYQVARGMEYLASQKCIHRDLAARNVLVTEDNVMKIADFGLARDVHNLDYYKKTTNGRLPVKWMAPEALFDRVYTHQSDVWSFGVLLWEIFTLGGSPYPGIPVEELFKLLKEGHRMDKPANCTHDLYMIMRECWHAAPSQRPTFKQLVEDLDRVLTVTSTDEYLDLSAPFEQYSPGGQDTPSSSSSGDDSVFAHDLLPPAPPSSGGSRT
Test: Inhibition of FGFR3 (unknown origin) at 5.5 uM by Caliper Mobility Shift Assay

Structure (SMILES) | inhibition
COC(Cn1c(SC2CCC(C(=O)O)CC2O)nc(-c2ccc(F)cc2)c1-c1ccnc(NC(C)=O)c1)OC (stereo unspecified) | < 50%

Biological target: Receptor-type tyrosine-protein kinase FLT3 (Homo sapiens) (UniProt P36888)
Test: Inhibition of FLT3 (unknown origin) at 5.5 uM by Caliper Mobility Shift Assay

Structure (SMILES) | inhibition
COC(Cn1c(SC2CCC(C(=O)O)CC2O)nc(-c2ccc(F)cc2)c1-c1ccnc(NC(C)=O)c1)OC (stereo unspecified) | < 50%

Biological target: Calcium/calmodulin-dependent protein kinase type II subunit beta (Homo sapiens) (UniProt Q13554)
Test: Inhibition of CAMK2 (unknown origin) at 5.5 uM by Caliper Mobility Shift Assay

Structure (SMILES) | inhibition
COC(Cn1c(SC2CCC(C(=O)O)CC2O)nc(-c2ccc(F)cc2)c1-c1ccnc(NC(C)=O)c1)OC (stereo unspecified) | < 50%

Biological target: Tyrosine-protein kinase Lck (Homo sapiens) (UniProt P06239)
Sequence (P06239 2-509 limits assumed): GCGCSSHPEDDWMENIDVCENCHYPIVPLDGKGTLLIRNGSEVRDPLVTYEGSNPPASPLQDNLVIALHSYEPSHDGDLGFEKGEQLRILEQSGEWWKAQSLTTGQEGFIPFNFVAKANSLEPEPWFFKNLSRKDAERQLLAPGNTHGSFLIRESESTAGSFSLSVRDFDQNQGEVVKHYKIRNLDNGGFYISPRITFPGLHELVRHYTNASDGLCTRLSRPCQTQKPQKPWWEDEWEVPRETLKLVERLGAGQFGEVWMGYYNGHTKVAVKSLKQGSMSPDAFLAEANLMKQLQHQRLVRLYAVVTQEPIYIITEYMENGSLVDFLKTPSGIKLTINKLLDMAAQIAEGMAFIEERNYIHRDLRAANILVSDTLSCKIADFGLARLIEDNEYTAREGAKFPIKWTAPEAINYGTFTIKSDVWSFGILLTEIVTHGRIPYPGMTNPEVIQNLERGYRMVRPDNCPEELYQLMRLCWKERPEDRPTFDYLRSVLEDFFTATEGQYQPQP
Test: Inhibition of LCK (unknown origin) at 5.5 uM by Caliper Mobility Shift Assay

Structure (SMILES) | inhibition
COC(Cn1c(SC2CCC(C(=O)O)CC2O)nc(-c2ccc(F)cc2)c1-c1ccnc(NC(C)=O)c1)OC (stereo unspecified) | < 50%

Biological target: Mitogen-activated protein kinase 10 (Homo sapiens, UniProt P53779)
Sequence (P53779 whole entry): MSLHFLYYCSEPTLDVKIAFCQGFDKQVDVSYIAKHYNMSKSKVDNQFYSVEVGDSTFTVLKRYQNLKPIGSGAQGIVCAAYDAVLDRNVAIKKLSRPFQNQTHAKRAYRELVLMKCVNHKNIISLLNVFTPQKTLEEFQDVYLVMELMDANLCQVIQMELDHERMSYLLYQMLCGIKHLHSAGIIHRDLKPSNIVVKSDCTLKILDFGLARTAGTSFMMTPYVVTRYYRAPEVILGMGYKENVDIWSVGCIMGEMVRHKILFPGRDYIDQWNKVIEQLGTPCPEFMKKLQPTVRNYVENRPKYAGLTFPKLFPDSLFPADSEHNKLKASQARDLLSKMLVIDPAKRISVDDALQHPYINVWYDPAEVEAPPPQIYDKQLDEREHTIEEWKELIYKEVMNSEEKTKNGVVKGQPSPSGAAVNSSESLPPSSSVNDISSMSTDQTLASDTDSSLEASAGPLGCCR
Test: Inhibition of MAPK10 (JNK3) (unknown origin) at 5.5 uM by Caliper Mobility Shift Assay

Structure (SMILES) | inhibition
COC(Cn1c(SC2CCC(C(=O)O)CC2O)nc(-c2ccc(F)cc2)c1-c1ccnc(NC(C)=O)c1)OC (stereo unspecified) | < 50%

Biological target: Platelet-derived growth factor receptor alpha (Homo sapiens) (UniProt P16234)
Test: Inhibition of PDGFRa (unknown origin) at 5.5 uM by Caliper Mobility Shift Assay

Structure (SMILES) | inhibition
COC(Cn1c(SC2CCC(C(=O)O)CC2O)nc(-c2ccc(F)cc2)c1-c1ccnc(NC(C)=O)c1)OC (stereo unspecified) | < 50%

Biological target: Tyrosine-protein kinase JAK1 (Homo sapiens) (UniProt P23458)
Sequence (P23458 whole entry): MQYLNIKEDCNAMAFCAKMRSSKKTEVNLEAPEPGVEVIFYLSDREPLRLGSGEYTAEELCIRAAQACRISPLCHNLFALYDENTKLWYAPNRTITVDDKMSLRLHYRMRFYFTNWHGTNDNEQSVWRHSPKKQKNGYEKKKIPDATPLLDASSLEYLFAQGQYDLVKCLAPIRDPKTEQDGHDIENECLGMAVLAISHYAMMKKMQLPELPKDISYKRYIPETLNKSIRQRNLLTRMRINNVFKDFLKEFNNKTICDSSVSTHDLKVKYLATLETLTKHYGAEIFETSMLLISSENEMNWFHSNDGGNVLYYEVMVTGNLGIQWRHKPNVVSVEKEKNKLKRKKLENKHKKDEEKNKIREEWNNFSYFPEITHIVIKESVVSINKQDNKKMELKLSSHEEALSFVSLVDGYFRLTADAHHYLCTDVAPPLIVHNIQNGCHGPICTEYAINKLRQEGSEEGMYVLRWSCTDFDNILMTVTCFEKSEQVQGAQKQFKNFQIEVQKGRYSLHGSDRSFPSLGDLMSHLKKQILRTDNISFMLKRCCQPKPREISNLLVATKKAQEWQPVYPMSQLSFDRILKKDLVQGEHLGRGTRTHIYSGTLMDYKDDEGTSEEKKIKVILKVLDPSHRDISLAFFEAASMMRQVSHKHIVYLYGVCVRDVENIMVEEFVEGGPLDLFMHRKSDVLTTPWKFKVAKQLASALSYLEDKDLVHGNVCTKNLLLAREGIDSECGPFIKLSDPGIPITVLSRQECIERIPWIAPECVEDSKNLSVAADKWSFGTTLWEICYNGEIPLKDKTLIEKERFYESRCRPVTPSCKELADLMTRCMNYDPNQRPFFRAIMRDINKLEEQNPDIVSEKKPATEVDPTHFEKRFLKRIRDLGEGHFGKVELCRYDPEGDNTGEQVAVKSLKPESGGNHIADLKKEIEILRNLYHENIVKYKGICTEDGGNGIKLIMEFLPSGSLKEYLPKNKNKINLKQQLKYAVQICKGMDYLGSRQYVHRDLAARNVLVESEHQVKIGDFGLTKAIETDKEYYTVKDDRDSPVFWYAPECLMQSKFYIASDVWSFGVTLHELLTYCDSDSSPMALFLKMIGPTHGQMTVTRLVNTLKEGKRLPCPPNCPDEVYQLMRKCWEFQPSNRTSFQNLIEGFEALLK
Test: Inhibition of JAK1 (unknown origin) at 5.5 uM by Caliper Mobility Shift Assay

Structure (SMILES) | inhibition
COC(Cn1c(SC2CCC(C(=O)O)CC2O)nc(-c2ccc(F)cc2)c1-c1ccnc(NC(C)=O)c1)OC (stereo unspecified) | < 50%

Biological target: RAC-alpha serine/threonine-protein kinase (Homo sapiens) (UniProt P31749)
Test: Inhibition of AKT1 (PKBa) (unknown origin) at 5.5 uM by Caliper Mobility Shift Assay

Structure (SMILES) | inhibition
COC(Cn1c(SC2CCC(C(=O)O)CC2O)nc(-c2ccc(F)cc2)c1-c1ccnc(NC(C)=O)c1)OC (stereo unspecified) | < 50%

Biological target: T2, Serine/threonine-protein kinase 17B (Homo sapiens) (UniProt O94768)
T2 sequence (whole entry): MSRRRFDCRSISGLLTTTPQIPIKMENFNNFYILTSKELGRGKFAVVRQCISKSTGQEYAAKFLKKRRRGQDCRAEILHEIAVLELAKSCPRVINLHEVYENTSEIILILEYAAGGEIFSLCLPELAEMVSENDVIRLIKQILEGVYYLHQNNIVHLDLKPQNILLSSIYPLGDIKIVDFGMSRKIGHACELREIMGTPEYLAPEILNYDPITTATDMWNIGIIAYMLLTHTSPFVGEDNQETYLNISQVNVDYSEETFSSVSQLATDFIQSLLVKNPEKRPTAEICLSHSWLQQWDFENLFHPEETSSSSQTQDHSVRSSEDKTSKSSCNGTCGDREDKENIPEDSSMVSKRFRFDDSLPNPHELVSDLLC
Test: Inhibition of STK17B (unknown origin) at 5.5 uM by Caliper Mobility Shift Assay

Structure (SMILES) | inhibition
COC(Cn1c(SC2CCC(C(=O)O)CC2O)nc(-c2ccc(F)cc2)c1-c1ccnc(NC(C)=O)c1)OC (stereo unspecified) | < 50%

Biological target: Cyclin-dependent kinase 2 (Homo sapiens) (UniProt P24941)
Test: Inhibition of CDK2 (unknown origin) at 5.5 uM by Caliper Mobility Shift Assay

Structure (SMILES) | inhibition
COC(Cn1c(SC2CCC(C(=O)O)CC2O)nc(-c2ccc(F)cc2)c1-c1ccnc(NC(C)=O)c1)OC (stereo unspecified) | < 50%

Biological target: Fibroblast growth factor receptor 4 (Homo sapiens) (UniProt P22455)
Sequence (P22455 22-802 limits assumed): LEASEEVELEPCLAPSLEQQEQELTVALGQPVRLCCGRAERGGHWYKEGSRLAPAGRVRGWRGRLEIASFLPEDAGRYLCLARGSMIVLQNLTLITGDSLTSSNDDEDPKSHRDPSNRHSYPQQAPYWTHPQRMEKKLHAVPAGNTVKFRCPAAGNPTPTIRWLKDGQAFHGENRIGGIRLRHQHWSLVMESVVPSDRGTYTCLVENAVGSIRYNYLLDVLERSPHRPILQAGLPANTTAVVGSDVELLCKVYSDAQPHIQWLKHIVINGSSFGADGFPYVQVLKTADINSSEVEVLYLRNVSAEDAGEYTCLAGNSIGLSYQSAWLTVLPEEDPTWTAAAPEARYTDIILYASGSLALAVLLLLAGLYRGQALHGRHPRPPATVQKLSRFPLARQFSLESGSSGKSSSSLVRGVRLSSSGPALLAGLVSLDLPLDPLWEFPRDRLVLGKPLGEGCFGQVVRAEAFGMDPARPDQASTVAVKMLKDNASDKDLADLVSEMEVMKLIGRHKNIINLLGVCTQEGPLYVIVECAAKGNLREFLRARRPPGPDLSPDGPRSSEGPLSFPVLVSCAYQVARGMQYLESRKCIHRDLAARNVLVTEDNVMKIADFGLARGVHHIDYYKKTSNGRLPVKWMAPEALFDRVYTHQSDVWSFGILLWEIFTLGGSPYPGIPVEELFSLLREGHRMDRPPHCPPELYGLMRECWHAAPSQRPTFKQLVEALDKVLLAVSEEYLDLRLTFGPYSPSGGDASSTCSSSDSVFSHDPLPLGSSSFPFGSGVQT
Test: Inhibition of FGFR4 (unknown origin) at 5.5 uM by Caliper Mobility Shift Assay

Structure (SMILES) | inhibition
COC(Cn1c(SC2CCC(C(=O)O)CC2O)nc(-c2ccc(F)cc2)c1-c1ccnc(NC(C)=O)c1)OC (stereo unspecified) | < 50%

Biological target: Mitogen-activated protein kinase kinase kinase kinase 4 (Homo sapiens) (UniProt O95819)
Sequence (O95819 2-1239 limits assumed): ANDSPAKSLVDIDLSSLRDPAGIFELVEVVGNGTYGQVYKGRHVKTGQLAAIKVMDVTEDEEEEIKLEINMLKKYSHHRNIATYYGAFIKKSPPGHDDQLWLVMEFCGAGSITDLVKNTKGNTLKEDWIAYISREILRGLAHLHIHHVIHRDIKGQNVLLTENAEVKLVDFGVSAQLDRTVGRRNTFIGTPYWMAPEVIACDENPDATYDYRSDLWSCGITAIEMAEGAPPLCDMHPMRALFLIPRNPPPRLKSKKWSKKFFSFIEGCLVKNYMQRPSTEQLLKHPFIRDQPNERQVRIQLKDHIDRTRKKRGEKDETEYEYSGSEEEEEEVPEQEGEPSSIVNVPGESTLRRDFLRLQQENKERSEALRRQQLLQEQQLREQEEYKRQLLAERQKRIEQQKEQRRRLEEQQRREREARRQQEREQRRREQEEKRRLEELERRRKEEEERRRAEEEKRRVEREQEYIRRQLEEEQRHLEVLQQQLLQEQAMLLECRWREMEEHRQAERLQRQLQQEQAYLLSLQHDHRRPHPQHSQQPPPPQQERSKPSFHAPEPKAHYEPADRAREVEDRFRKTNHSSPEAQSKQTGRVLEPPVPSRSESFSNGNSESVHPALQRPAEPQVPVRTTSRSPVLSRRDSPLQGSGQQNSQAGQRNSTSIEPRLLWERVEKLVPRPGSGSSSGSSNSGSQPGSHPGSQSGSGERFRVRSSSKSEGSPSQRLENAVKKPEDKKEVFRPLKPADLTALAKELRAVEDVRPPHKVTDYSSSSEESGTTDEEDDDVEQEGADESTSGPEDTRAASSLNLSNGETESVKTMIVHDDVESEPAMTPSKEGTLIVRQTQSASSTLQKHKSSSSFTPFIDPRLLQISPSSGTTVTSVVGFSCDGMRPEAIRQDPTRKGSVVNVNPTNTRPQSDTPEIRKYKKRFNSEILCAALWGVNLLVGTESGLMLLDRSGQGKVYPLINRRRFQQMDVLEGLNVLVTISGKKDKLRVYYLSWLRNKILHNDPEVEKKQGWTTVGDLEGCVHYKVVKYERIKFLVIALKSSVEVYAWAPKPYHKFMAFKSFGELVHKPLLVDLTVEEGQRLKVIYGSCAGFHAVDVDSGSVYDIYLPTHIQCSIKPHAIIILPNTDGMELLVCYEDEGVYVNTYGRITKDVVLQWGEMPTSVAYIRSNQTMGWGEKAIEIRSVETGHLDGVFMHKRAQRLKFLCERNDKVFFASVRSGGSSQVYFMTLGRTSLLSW
Test: Inhibition of MAP4K4 (unknown origin) at 5.5 uM by Caliper Mobility Shift Assay

Structure (SMILES) | inhibition
COC(Cn1c(SC2CCC(C(=O)O)CC2O)nc(-c2ccc(F)cc2)c1-c1ccnc(NC(C)=O)c1)OC (stereo unspecified) | < 50%

Organism: Homo sapiens
Test: Inhibition of CDK1B (unknown origin) at 5.5 uM by Caliper Mobility Shift Assay

Structure (SMILES) | inhibition
COC(Cn1c(SC2CCC(C(=O)O)CC2O)nc(-c2ccc(F)cc2)c1-c1ccnc(NC(C)=O)c1)OC (stereo unspecified) | < 50%

Biological target: Proto-oncogene tyrosine-protein kinase receptor Ret (Homo sapiens) (UniProt P07949)
Test: Inhibition of RET (unknown origin) at 5.5 uM by Caliper Mobility Shift Assay

Structure (SMILES) | inhibition
COC(Cn1c(SC2CCC(C(=O)O)CC2O)nc(-c2ccc(F)cc2)c1-c1ccnc(NC(C)=O)c1)OC (stereo unspecified) | < 50%

Biological target: T3, Tyrosine-protein kinase ZAP-70 (Homo sapiens) (UniProt P43403)
T3 sequence (whole entry): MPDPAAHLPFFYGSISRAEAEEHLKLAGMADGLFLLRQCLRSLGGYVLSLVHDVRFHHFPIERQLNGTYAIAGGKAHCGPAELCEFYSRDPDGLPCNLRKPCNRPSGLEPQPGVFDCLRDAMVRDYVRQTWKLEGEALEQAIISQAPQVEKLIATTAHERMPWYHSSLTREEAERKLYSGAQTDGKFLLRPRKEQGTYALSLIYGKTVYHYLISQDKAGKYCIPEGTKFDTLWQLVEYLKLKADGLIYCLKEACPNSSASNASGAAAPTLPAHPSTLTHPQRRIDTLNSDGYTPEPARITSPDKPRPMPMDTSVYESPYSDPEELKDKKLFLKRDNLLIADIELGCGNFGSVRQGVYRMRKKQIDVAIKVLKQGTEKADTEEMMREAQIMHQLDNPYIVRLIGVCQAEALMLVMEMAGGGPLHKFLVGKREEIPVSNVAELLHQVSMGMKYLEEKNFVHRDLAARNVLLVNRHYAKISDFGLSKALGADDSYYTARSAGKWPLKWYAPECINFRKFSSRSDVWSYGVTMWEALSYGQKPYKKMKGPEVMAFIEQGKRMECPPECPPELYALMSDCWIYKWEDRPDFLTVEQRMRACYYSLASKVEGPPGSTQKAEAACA
Test: Inhibition of ZAP70 (unknown origin) at 5.5 uM by Caliper Mobility Shift Assay

Structure (SMILES) | inhibition
COC(Cn1c(SC2CCC(C(=O)O)CC2O)nc(-c2ccc(F)cc2)c1-c1ccnc(NC(C)=O)c1)OC (stereo unspecified) | < 50%

Tested on: Fibroblast growth factor receptor 3 (Homo sapiens), P22607 [K650E]
Test: Inhibition of FGFR3 K650E (unknown origin) at 5.5 uM by Caliper Mobility Shift Assay

Structure (SMILES) | inhibition
COC(Cn1c(SC2CCC(C(=O)O)CC2O)nc(-c2ccc(F)cc2)c1-c1ccnc(NC(C)=O)c1)OC (stereo unspecified) | < 50%

Biological target: Protein kinase C alpha type (Homo sapiens) (UniProt P17252)
Test: Inhibition of PRKCA (unknown origin) at 5.5 uM by Caliper Mobility Shift Assay

Structure (SMILES) | inhibition
COC(Cn1c(SC2CCC(C(=O)O)CC2O)nc(-c2ccc(F)cc2)c1-c1ccnc(NC(C)=O)c1)OC (stereo unspecified) | < 50%
